For one data set, the target named is T1, P0 (Rattus norvegicus, UniProt P06907).
T1 construct: performed using P0-expressing RT4 D6P2T cells; host or cells: RT4 D6P2T myelinating Schwannoma cells
T1 sequence (P06907 30-248): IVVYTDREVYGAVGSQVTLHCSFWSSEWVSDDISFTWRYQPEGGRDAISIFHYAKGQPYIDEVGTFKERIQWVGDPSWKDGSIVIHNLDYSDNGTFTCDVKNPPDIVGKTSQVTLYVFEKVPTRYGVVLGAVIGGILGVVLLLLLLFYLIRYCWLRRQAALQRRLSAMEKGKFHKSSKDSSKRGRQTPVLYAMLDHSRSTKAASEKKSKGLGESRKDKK
The experiment in a line: P0 affinity (KD) via flow cytometry saturation binding. The note with it: saturation binding on P0-expressing RT4 D6P2T Schwannoma cells, flow cytometry (APC-A), 0–2000 nM, triplicate, repeated at least two times per tracer.

A further data set is described as follows: Solubility. The format is physicochemical. The conditions noted are these: as previously described (refs 27, 31, 36). The method, then:
(§1) Determination of the chemical and photophysical properties (LogP, solubility, serum binding, net charge, and brightness) was performed as previously described.

Another data set in a line: LogP. The format is physicochemical. The conditions noted are these: as previously described (refs 27, 31, 36). The method, then:
as §1

A short description of a further data set: Serum binding. The format is in vitro ADME. The conditions noted are these: as previously described (refs 27, 31, 36). As for the experimental part:
as §1

Another data set can be described thus: Brightness (in HSA). The format is physicochemical, human. As for the experimental part:
as §1

≈ marks a conversion by molar mass, not a printed value. Read-outs that look alike come from different tables or passages of the source. Where a SMILES comes first, the peptide text is derived from it. The star is where a group is joined. X1 = CC1(C)C(/C=C/C=C/C=C2/N(CCCCS(=O)(=O)O)c3ccc(S(=O)(=O)O)cc3C2(C)C)=[N+](CCCCCC(=O)NCCN2C(=O)CC(*)C2=O)c2ccc(S(=O)(=O)[O-])cc21; X2 = CC1(C)C(=CC=CC=CC2=[N+](CCCCS(=O)(=O)[O-])c3ccc(S(=O)(=O)O)cc3C2(C)C)N(CCCCCC(=O)NCCN2C(=O)CC(*)C2=O)c2ccc(S(=O)(=O)O)cc21

Procedure for P0: The mean fluorescence intensity values per sample were measured using an LSRII flow cytometer (BD Biosciences, Franklin Lakes, NJ, USA) with APC-A settings (635 nm laser and 750 nm long-pass filter) for a Cy5 dye. […] For the affinity assessment, fluorescence was measured using a FACSCanto II flow cytometry device (BD Biosciences, Franklin Lakes, NJ, USA) in the APC-A channel, and the accompanying FlowJo^TM v5 software (BD Biosciences, Franklin Lakes, NJ, USA) was used for further analysis.
Saturation binding experiments were performed for each of the fluorescent peptides in a concentration range of 0–2000 nM. All measurements were performed in triplicate, and experiments were repeated at least two times per tracer. The fluorescence was measured using a FACSCanto II flow cytometry device (BD Biosciences) in the APC-A channel, and the accompanying FlowJo software was used for further analysis. KD assessment was performed using the normalized geometric means, which were fitted with equations in GraphPad Prism 5 software.
A statistical evaluation to compare the affinity (KD) was performed using unpaired Student’s t-test. Values of p < 0.05 were considered significant.

As usually defined, the Kd is the free concentration of one partner at which half of the binding sites on the other are occupied at equilibrium, for simple one-to-one binding. Read a high Kd as lower affinity. The term Solubility denotes the concentration that dissolves in the medium under given conditions. In general, LogP refers to a log measure of how a compound divides between an organic and an aqueous phase. One may read the fraction unbound as free concentration divided by total concentration. As for `CC[C@H](C)[C@H](NC(=O)[C@H](CC(=O)O)NC(=O)[C@@H]1CCCN1C(=O)[C@@H]1CCCN1C(=O)[C@H](CC(N)=O)NC(=O)[C@H](CCCCN)NC(C)=O)C(=O)N[C@H](C(=O)NCC(=O)N[C@@H](CCCCN)C(=O)N[C@H](C(=O)N[C@@H](CO)C(=O)N[C@@H](CCC(N)=O)C(=O)N[C@H](C(=O)N[C@H](C(=O)N[C@@H](CC(C)C)C(=O)N[C@@H](CSC1CC(=O)N(CCNC(=O)CCCCC[N+]2=C(/C=C/C=C/C=C3/N(CCCCS(=O)(=O)O)c4ccc(S(=O)(=O)O)cc4C3(C)C)C(C)(C)c3cc(S(=O)(=O)[O-])ccc32)C1=O)C(N)=O)[C@@H](C)O)C(C)C)[C@@H](C)O)C(C)C` (some centres unmarked) [Cy5-P0_101–115] (Ac-KNPPDIVGKTSQVTLC(X1)-NH2), at P0, the dissociation constant Kd is > 1000 nM. In addition, in “Solubility”, the Solubility was >400 µM. In addition, the LogP in the data set “LogP” (read-out: LogP) was -0.8 ± 0.16. The same compound showed a fraction unbound in the data set “Serum binding” of 0.4.
With `CC[C@H](C)[C@H](NC(=O)[C@H](CC(=O)O)NC(=O)[C@@H]1CCCN1C(=O)[C@@H]1CCCN1C(=O)[C@H](CC(N)=O)NC(=O)[C@H](CCCCN)NC(C)=O)C(=O)N[C@H](C(=O)NCC(=O)N[C@@H](CCCCN)C(=O)N[C@H](C(=O)N[C@@H](CSC1CC(=O)N(CCNC(=O)CCCCC[N+]2=C(/C=C/C=C/C=C3/N(CCCCS(=O)(=O)O)c4ccc(S(=O)(=O)O)cc4C3(C)C)C(C)(C)c3cc(S(=O)(=O)[O-])ccc32)C1=O)C(N)=O)[C@@H](C)O)C(C)C` (some centres unmarked) [Cy5-P0_101–110] (Ac-KNPPDIVGKTC(X1)-NH2), the Kd at P0 is > 1000 nM. Besides, in the data set “Solubility”, the Solubility was >400 µM. Further, the LogP in “LogP” (read-out: LogP) is -0.73 ± 0.12. In addition, the fraction unbound in the data set “Serum binding” is 0.45.
In the case of `CC(=O)N[C@@H](CCC(N)=O)C(=O)N[C@H](C(=O)N[C@H](C(=O)N[C@@H](CC(C)C)C(=O)N[C@@H](Cc1ccc(O)cc1)C(=O)N[C@H](C(=O)N[C@@H](Cc1ccccc1)C(=O)N[C@@H](CCC(=O)O)C(=O)N[C@@H](CCCCN)C(=O)N[C@H](C(=O)N1CCC[C@H]1C(=O)N[C@H](C(=O)N[C@@H](CCCNC(=N)N)C(=O)N[C@@H](Cc1ccc(O)cc1)C(=O)N[C@@H](CSC1CC(=O)N(CCNC(=O)CCCCC[N+]2=C(/C=C/C=C/C=C3/N(CCCCS(=O)(=O)O)c4ccc(S(=O)(=O)O)cc4C3(C)C)C(C)(C)c3cc(S(=O)(=O)[O-])ccc32)C1=O)C(N)=O)[C@@H](C)O)C(C)C)C(C)C)[C@@H](C)O)C(C)C` (some centres unmarked) [Cy5-P0_112–125] (Ac-QVTLYVFEKVPTRYC(X1)-NH2), on P0, the Kd came out at 69 nM. The Solubility in “Solubility” is 71 µM (≈ 197 µg/mL); in “Solubility” (listed as Cy5P0_112–125), “relatively low solubility”. Also, the log partition coefficient (LogP) in “LogP” is given as −1.08 + 0.03.
`CC(=O)N[C@@H](Cc1ccc(O)cc1)C(=O)N[C@H](C(=O)N[C@@H](Cc1ccccc1)C(=O)N[C@@H](CCC(=O)O)C(=O)N[C@@H](CCCCN)C(=O)N[C@H](C(=O)N1CCC[C@H]1C(=O)N[C@H](C(=O)N[C@@H](CCCNC(=N)N)C(=O)N[C@@H](Cc1ccc(O)cc1)C(=O)N[C@@H](CSC1CC(=O)N(CCNC(=O)CCCCC[N+]2=C(/C=C/C=C/C=C3/N(CCCCS(=O)(=O)O)c4ccc(S(=O)(=O)O)cc4C3(C)C)C(C)(C)c3cc(S(=O)(=O)[O-])ccc32)C1=O)C(N)=O)[C@@H](C)O)C(C)C)C(C)C` (some centres unmarked) [Cy5-P0_116–125] (Ac-YVFEKVPTRYC(X1)-NH2) yielded a Kd at P0 of 147 ± 80 nM. This compound also yielded a Solubility in the data set “Solubility” of 150 µM (≈ 350 µg/mL). Further, the LogP in the data set “LogP” was −1.58 + 0.03.
Consider `CC[C@H](C)[C@H](NC(=O)[C@H](CC(=O)O)NC(=O)[C@@H]1CCCN1C(=O)[C@@H]1CCCN1C(=O)[C@H](CC(N)=O)NC(=O)[C@H](CCCCN)NC(C)=O)C(=O)N[C@@H](CSC1CC(=O)N(CCNC(=O)CCCCC[N+]2=C(/C=C/C=C/C=C3/N(CCCCS(=O)(=O)O)c4ccc(S(=O)(=O)O)cc4C3(C)C)C(C)(C)c3cc(S(=O)(=O)[O-])ccc32)C1=O)C(N)=O` (some centres unmarked) [Cy5-P0_101–106] (Ac-KNPPDIC(X1)-NH2), for which, in the data set “Solubility”, the Solubility is reported as >400 µM. Besides, the lipophilicity (LogP) in the data set “LogP” (read-out: LogP) is -0.95 ± 0.05. Also, in “Serum binding”, the fraction unbound was 0.53.
With `CC(=O)NCC(=O)N[C@@H](CCCCN)C(=O)N[C@H](C(=O)N[C@@H](CO)C(=O)N[C@@H](CCC(N)=O)C(=O)N[C@H](C(=O)N[C@H](C(=O)N[C@@H](CC(C)C)C(=O)N[C@@H](Cc1ccc(O)cc1)C(=O)N[C@H](C(=O)N[C@@H](Cc1ccccc1)C(=O)N[C@@H](CCC(=O)O)C(=O)N[C@@H](CCCCN)C(=O)N[C@H](C(=O)N1CCC[C@H]1C(=O)N[C@H](C(=O)N[C@@H](CCCNC(=N)N)C(=O)N[C@@H](Cc1ccc(O)cc1)C(=O)N[C@@H](CSC1CC(=O)N(CCNC(=O)CCCCC[N+]2=C(/C=C/C=C/C=C3/N(CCCCS(=O)(=O)O)c4ccc(S(=O)(=O)O)cc4C3(C)C)C(C)(C)c3cc(S(=O)(=O)[O-])ccc32)C1=O)C(N)=O)[C@@H](C)O)C(C)C)C(C)C)[C@@H](C)O)C(C)C)[C@@H](C)O` (some centres unmarked) [Cy5-P0_108–125] (Ac-GKTSQVTLYVFEKVPTRYC(X1)-NH2), the Kd at P0 came out at 83 nM. In the data set “LogP”, the LogP is recorded as −1.34 + 0.03. For the same compound, the fraction unbound in “Serum binding” was 0.31.
In “Solubility”, `CC(=O)N[C@@H](CCCCN)C(=O)N[C@H](C(=O)N1CCC[C@H]1C(=O)N[C@H](C(=O)N[C@@H](CCCNC(=N)N)C(=O)N[C@@H](Cc1ccc(O)cc1)C(=O)N[C@@H](CSC1CC(=O)N(CCNC(=O)CCCCC[N+]2=C(/C=C/C=C/C=C3/N(CCCCS(=O)(=O)O)c4ccc(S(=O)(=O)O)cc4C3(C)C)C(C)(C)c3cc(S(=O)(=O)[O-])ccc32)C1=O)C(N)=O)[C@@H](C)O)C(C)C` (some centres unmarked) [Cy5-P0_120–125] (Ac-KVPTRYC(X1)-NH2) displayed a Solubility of 150 µM (≈ 269 µg/mL). Moreover, the LogP in the data set “LogP” is reported as −1.59 + 0.01. Besides, the fraction unbound in “Serum binding” was 0.29.
In the case of `CC[C@H](C)[C@H](NC(=O)[C@H](CC(=O)O)NC(=O)[C@@H]1CCCN1C(=O)[C@@H]1CCCN1C(=O)[C@H](CC(N)=O)NC(=O)[C@H](CCCCN)NC(C)=O)C(=O)N[C@H](C(=O)NCC(=O)N[C@@H](CCCCN)C(=O)N[C@H](C(=O)N[C@@H](CO)C(=O)N[C@@H](CCC(N)=O)C(=O)N[C@H](C(=O)N[C@H](C(=O)N[C@@H](CC(C)C)C(=O)N[C@@H](Cc1ccc(O)cc1)C(=O)N[C@H](C(=O)N[C@@H](Cc1ccccc1)C(=O)N[C@@H](CCC(=O)O)C(=O)N[C@@H](CCCCN)C(=O)N[C@@H](CSC1CC(=O)N(CCNC(=O)CCCCCN2C(=CC=CC=CC3=[N+](CCCCS(=O)(=O)[O-])c4ccc(S(=O)(=O)O)cc4C3(C)C)C(C)(C)c3cc(S(=O)(=O)O)ccc32)C1=O)C(N)=O)C(C)C)[C@@H](C)O)C(C)C)[C@@H](C)O)C(C)C` (some centres unmarked) [Cy5-P0_101–120] (Ac-KNPPDIVGKTSQVTLYVFEKC(X2)-NH2; N-terminus and C-terminus assumed), the Solubility in “Solubility” was 15 µM (≈ 49.4 µg/mL). The LogP in “LogP” (read-out: LogP) is -0.99 ± 0.1. Besides, in the data set “Serum binding”, the fraction unbound was 0.34. In addition, in the data set “Brightness (in HSA)” (in HSA), the “increase in brightness versus lead Cy5-P0_101–125” value is reported as “twofold increase in brightness”. Besides, the “Brightness (in HSA)” value in the data set “Brightness (in HSA)” (in human serum albumin) is reported as 137,940.

Values taken from publication PMC10296720, “A Truncated 14-Amino-Acid Myelin Protein-Zero-Targeting Peptide for Fluorescence-Guided Nerve-Preserving Surgery” (Biomolecules, 2023).
